Test results as given in US7592143B2, “Methods of treating diseases responsive to induction of apoptosis and screening assays” (Cytovia, Inc., priority 2003, dated 2009).

What was measured:
[1] = system: T-47D; assay: Caspase cascade activation and induction of apoptosis in solid tumor cells; type: cell-based, Human; details: 48 h incubation; for Caspase activity (Ratio): ratio of net RFU of test compound to control; for EC50: Homo sapiens, T47D, read-out: Caspase potency EC50; for EC50 / Caspase potency EC50 (nM): 0.016 to 10 μM
Method: Human breast cancer cell lines T-47D and DLD-1 were grown according to media component mixtures designated by American Type Culture Collection +10% FCS (Invitrogen Corporation), in a 5% CO2-95% humidity incubator at 37° C. T-47D and DLD-1 cells were maintained at a cell density between 50 and 80% confluency at a cell density of 0.1 to 0.6×10^6 cells/mL. Cells were harvested at 600×g and resuspended at 0.65×10^6 cells/mL into appropriate media +10% FCS. An aliquot of 22.5 μL of cells was added to a well of a 384-well microtiter plate containing 2.5 μL of a 10% DMSO in RPMI-1640 media solution containing 0.16 to 100 μM of test compound (0.016 to 10 μM final). An aliquot of 22.5 μL of cells was added to a well of a 384-well microtiter plate containing 2.5 μL of a 10% DMSO in RPMI-1640 media solution without test compound as the control sample. The samples were mixed by agitation and then incubated at 37° C. for 48 h in a 5% CO2-95% humidity incubator. After incubation, the samples were removed from the incubator and 25 μL of a solution containing 14 μM of N-(Ac-DEVD)-N′-ethoxycarbonyl-R110 (SEQ ID NO.: 41) fluorogenic substrate (Cytovia, Inc.; WO99/18856), 20% sucrose (Sigma), 20 mM DTT (Sigma), 200 mM NaCl (Sigma), 40 mM Na PIPES buffer pH 7.2 (Sigma), and 500 μg/mL lysolecithin (Calbiochem) was added. The samples were mixed by agitation and incubated at room temperature. Using a fluorescent plate reader (Model SPECTRAfluor Plus, Tecan), an initial reading (T=0) was made approximately 1-2 min after addition of the substrate solution, employing excitation at 485 nm and emission at 530 nm, to determine the background fluorescence of the control sample. After the 3 h incubation, the samples were read for fluorescence as above (T=3 h).
The Relative Fluorescence Unit values (RFU) were used to calculate the sample readings as follows: RFU(T=3h)−Control RFU(T=0)=Net RFU(T=3h)
The activity of caspase cascade activation was determined by the ratio of the net RFU value for test compound to that of control samples. The EC50 (nM) was determined by a sigmoidal dose-response calculation (Prism 3.0, GraphPad Software Inc.).

[2] = biological target: Transferrin Receptors (Homo sapiens, UniProt P02786); assay: Transferrin receptor binding assay of small molecules: inhibition of biotin-GA binding; details: 0.75 h; Compounds tested at 20 μM; biotin-GA kept at 1 μM
Chain of Transferrin Receptors (P02786 whole entry): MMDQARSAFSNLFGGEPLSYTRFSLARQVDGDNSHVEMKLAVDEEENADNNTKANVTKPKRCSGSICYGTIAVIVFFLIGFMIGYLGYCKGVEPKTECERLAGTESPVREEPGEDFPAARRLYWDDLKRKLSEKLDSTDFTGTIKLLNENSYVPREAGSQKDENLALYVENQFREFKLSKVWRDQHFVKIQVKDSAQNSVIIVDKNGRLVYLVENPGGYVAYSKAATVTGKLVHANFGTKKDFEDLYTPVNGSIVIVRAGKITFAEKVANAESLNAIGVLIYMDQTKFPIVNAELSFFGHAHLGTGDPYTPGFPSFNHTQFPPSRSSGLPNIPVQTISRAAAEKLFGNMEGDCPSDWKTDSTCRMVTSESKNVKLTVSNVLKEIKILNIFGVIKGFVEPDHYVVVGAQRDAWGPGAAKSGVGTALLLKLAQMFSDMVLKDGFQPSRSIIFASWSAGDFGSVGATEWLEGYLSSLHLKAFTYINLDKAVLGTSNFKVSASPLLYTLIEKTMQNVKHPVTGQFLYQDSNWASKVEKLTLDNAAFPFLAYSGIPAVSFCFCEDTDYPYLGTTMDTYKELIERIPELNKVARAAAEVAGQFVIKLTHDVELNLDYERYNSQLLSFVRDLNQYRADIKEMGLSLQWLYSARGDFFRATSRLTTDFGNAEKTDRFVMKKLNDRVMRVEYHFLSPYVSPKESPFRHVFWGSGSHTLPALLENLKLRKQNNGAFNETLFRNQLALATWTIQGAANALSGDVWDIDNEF
Method: The assay was run similar as described in Example 38. Wells of a 96-well assay plate were coated with 500 ng of HTR in 100 μl of PBS per well overnight at 4° C. These were washed twice with 200 μl of PBS and incubated with 200 μl of 1% BSA solution in PBS and washed twice with 200 μl of PBS. 100 μl of 1 μM biotin-GA solution in binding buffer (PBS/0.1% BSA/0.1% Tween-20) was added per well and incubated for 45 minutes at room temperature. For competition of binding assays biotin-GA was pre-mixed with indicated compounds at various concentrations. Final concentration of DMSO in binding mixtures was adjusted to 1% v/v. Wells were washed 4 times with 200 μl of binding buffer. 100 μl of 100 ng/ml Eu-labeled streptavidin solution in binding buffer were added per well and incubated for 45 minutes at room temperature. Wells were washed twice with 200 μl of binding buffer and twice with 200 μl of PBS. 100 μl of DELFIA Enhancement Solution were added per well and incubated for 10 minutes at room temperature. Plates were read on a Wallac Victor plate reader (Wallac-PerkinElmer Life Sciences) using delayed fluorescence Eu protocol at default manufacturer's settings.
Coated wells with no competing agent added were used to determine total binding (T). Non-coated wells were used to determine background binding (B). Background binding was consistently lower than 20%. Inhibition of binding was calculated as I=(T−BC)/(T−B)*100%, where BC was a reading corresponding to a well with a competing compound C added.
Other controls included assays of Biotin-GA binding to the wells coated with 500 μg/well of BSA or mouse Immunoglobulin G, the secondary reagent (Eu-labeled streptavidin) alone binding to the wells coated with […].

[3] = system: Jurkat cells; assay: Cell surface transferrin receptor expression by FACS; type: cell-based; details: 5 μM GA for 5 min
Method: FIG. 2B. […] Jurkat cells were treated with holo-transferrin (50 μg/ml) or GA (5 μM) alone for 5 min or pretreat for 5 min with holo-transferrin followed by 5 min GA (5 μM) treatment. Cells were then stained with FITC-conjugated anti-transferrin receptor antibody for 30 minutes at 4° C. After washing, cells were analyzed on a Becton Dickinson FACS Calibur. Data is shown as mean flourescence units (mfu). Confirmed in three independent experiments.
FACS Analysis: For cell surface staining of transferrin receptor, cells were washed with PBS+1% BSA and stained with FITC-conjugated anti-transferrin receptor antibody (RDI, Flanders, N.J.) for 30 minutes at 4° C. After washing, cells were analyzed on a FACS Calibur (BD Biosciences, San Jose, Calif.) using Cellquest software.

[4] = biological target: T1, soluble human transferrin receptor (shTR) (Homo sapiens, UniProt P02786); assay: Biotin-GA binding to plates coated with soluble human transferrin receptor, Eu-streptavidin detection
T1 construct: soluble human transferrin receptor (shTR); purchased Merck Biosciences, Schwalbach, Germany
T1 sequence (P02786 101-760 limits assumed): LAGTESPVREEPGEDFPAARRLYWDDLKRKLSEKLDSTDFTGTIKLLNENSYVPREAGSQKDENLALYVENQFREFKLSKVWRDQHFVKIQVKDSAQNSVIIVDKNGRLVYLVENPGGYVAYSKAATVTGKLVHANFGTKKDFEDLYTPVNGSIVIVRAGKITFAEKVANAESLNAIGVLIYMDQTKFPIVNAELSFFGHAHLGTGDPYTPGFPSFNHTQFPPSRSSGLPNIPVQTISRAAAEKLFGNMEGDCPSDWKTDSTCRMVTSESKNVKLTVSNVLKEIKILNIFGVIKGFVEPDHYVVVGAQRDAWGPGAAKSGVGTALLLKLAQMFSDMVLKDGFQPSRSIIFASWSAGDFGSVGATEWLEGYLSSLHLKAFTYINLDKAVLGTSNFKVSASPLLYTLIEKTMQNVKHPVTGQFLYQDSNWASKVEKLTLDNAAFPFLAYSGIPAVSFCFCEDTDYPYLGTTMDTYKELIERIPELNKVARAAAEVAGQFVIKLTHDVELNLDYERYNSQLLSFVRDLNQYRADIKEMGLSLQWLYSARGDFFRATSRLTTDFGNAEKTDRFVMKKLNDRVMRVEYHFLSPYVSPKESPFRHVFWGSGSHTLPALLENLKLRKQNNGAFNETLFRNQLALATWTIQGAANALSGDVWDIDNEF
Method: FIG. 1A. […] 96-well plates were coated with soluble human transferrin receptor (shTR) (SEQ ID NO. 1) at 375 ng/well and blocked with Bovine Serum Albumin (BSA). Wells were incubated with increasing concentrations of biotin-GA in binding/washing buffer for 20 min at 30° C. Eu-streptavidin was used for the detection. Amounts of bound Eu-Streptavidin were quantified by measuring time-delayed fluorescence. Confirmed in three independent experiments.
FIG. 1C. […] Separate control wells were probed with biotinylated holo-transferrin (bio-Trn) to control for TR retention and possible denaturation over long incubation times. Independently confirmed in three experiments.
FIG. 1D. […] Binding of Biotin-GA and tritium-GA to Jurkat cells (hatched) or in-vitro TfR-binding (solid) in the presence of 1 μM GA, 50 μg/ml of apo-transferrin or 50 μg/ml of holo-transferrin is shown in this graph. […]
96-well plates were coated with soluble human transferrin receptor (shTR) (Merck Biosciences, Schwalbach, Germany) at 375 ng/well and blocked with Bovine Serum Albumin (BSA). […] Amounts of bound Eu-Streptavidin were quantified after incubation with Enhancement Solution (Perkin-Elmer, Wellesey, Mass.) by measuring time-delayed fluorescence on a Wallac Victor plate reader (Perkin-Elmer, Wellesey, Mass.) according to manufacturer's protocol. […] Kd and competition EC50 values were calculated using PRIZM software. […]

[5] = system: T47D cells; assay: Transferrin receptor internalization, FITC anti-transferrin receptor immunofluorescence; type: cell-based, human; details: 2 μM GA for 10 or 30 min
Method: FIG. 2A. […] T47D cells were treated with DMSO or 2 μM GA for 10 min (panels A and C respectively) and DMSO or 2 μM GA for 30 min (panels B and D, respectively) and further treated with FITC conjugated anti-transferrin receptor for 30 mins at 37° C. The cells were then fixed with methanol at −20° C. for 5 min, washed with PBS and mounted with Vectashield mounting medium. Representative of three independently confirmed experiments.
For detecting internalization of fluorescent transferrin receptor, T47D cells were plated on glass cover slips in a 6-well plate at a density of 3×10^5 cells per well on the day before the experiment. Cells were pretreated with 2 μM GA for 10 min at 37° C. washed with PBS, and then labeled for 30 min with 1 μg/ml FITC-labeled mouse anti-human transferrin receptor (RDI, Flanders, N.J.) at 37° C. The cells were then fixed with methanol at −20° C. for 5 min, washed with PBS and mounted with Vectashield mounting medium (Hard set with DAPI, Vector Laboratories, Inc., Burlingame, Calif.).

Structure (SMILES)	EC50 [1] [µM]	inhibition at 20 µM [2] [%]	Caspase potency EC50 (nM) [1]	Caspase activity (Ratio) [1]	Transferrin receptor internalization by cell surface receptor expression (in words) [3]	Binding to transferrin receptor in vitro (in words) ([4]; shTR 375 ng/well, increasing concentrations of biotin-GA)	Displacement of receptor-bound GA (in words) ([4]; shTR-coated wells incubated with biotin-GA, washed, then incubated with GA)	Transferrin receptor internalization (in words) [5]
C=CCC12OCC3CC(C=C4C(=O)c5ccccc5OC431)C2=O (stereo not shown) [Example 17, 1-Allyl-1,3,3a,4,5,12a-hexahydro-7,13-dioxo-1,5-methano-furo[3,4-d]xanthene]	8.38	52		9.8				
C=CCC12OCC3CC4(Oc5ccccc5C(=O)C4=CC31)C2=O (stereo not shown) [Example 18, 1-Allyl-1,3,3a,4,4a,11a-hexahydro-10,12-dioxo-1,4a-methano-furo[3,4-b]xanthene]	6.6	42		2.9				
C=CCC12C=C(C(=O)c3ccccc3)C3(CC=C)C(COC3(CC=C)C1=O)C2 (stereo not shown) [Example 27, 1,3,7-Triallyl-8-benzoyl-4-oxa-tricyclo[4.3.1.0^3,7]dec-8-en-2-one]		11	Inactive	1.5				
C=CCC12CC3COC(CC=C)(C1=O)C3(CC=C)C=C2C(=O)c1ccccc1 (stereo not shown) [Example 28, 1,3,7-Triallyl-9-benzoyl-4-oxa-tricyclo[4.3.1.0^3,7]dec-8-en-2-one]		8	Inactive	1.3				
C=CCC12OCC3CC(CC4C(=O)c5ccccc5OC341)C2=O (stereo not shown) [Example 19, 1-allyl-1,3,3a,4,5,6,6a,12a-octahydro-7,13-dioxo-1,5-methano-furo[3,4-d]xanthene]		0	Inactive	1.0				
CC(C)=CCC[C@]1(C)C=Cc2c(O)c3c(c(CC=C(C)C)c2O1)O[C@]12C(=C[C@@H]4C[C@H]1C(C)(C)O[C@@]2(C/C=C(/C)C(=O)O)C4=O)C3=O [GA, Gambogic acid]					interferes with transferrin receptor (SEQ ID NO. 1) internalization	binds transferrin receptor in vitro	can be displaced by active GA derivatives	interferes with receptor internalization

Further lines, with some results ahead:

EC50 [1] [µM]	inhibition at 20 µM [2] [%]	Caspase potency EC50 (nM) [1]	Structure (SMILES)	Caspase activity (Ratio) [1]	Transferrin receptor internalization by cell surface receptor expression (in words) [3]	Binding to transferrin receptor in vitro (in words) ([4]; shTR 375 ng/well, increasing concentrations of biotin-GA)	Displacement of receptor-bound GA (in words) ([4]; shTR-coated wells incubated with biotin-GA, washed, then incubated with GA)	Transferrin receptor internalization (in words) [5]
4.02	51		CC(C)=CCC12OC(C)(C)C3CC(C=C4C(=O)c5ccccc5OC431)C2=O (stereo not shown) [Example 22, 1-(3-Methyl-2-butenyl)-3,3-dimethyl-1,3,3a,4,5,12a-hexahydro-7,13-dioxo-1,5-methano-furo[3,4-d]xanthene]	9.9				
3.85	47		CC(C)=CCC12OC(C)(C)C3CC(C=C4C(=O)C=C(c5ccccc5)OC431)C2=O (stereo not shown) [Example 31, 1-(3-Methyl-2-butenyl)-3,3-dimethyl-1,3,3a,4,5,10a-hexahydro-7,11-dioxo-9-phenyl-1,5-methano-furo[3,4-i]chromene]	11.4				
3.73	59		CC(C)=CCC12OC(C)(C)C3CC4(Oc5ccccc5C(=O)C4=CC31)C2=O (stereo not shown) [Example 23, 1-(3-Methyl-2-butenyl)-3,3-dimethyl-1,3,3a,4,4a,11a-hexahydro-10,12-dioxo-1,4a-methano-furo[3,4-b]xanthene]	14.1				
3.09	61		CC(C)=CCC12OC(C)(C)C3CC4(OC(c5ccccc5)=CC(=O)C4=CC31)C2=O (stereo not shown) [Example 32, 1-(3-Methyl-2-butenyl)-3,3-dimethyl-1,3,3 a,4,4a,9a-hexahydro-8,10-dioxo-6-phenyl-1,4a-methano-furo[3,4-g]chromene]	10.6				
